Reference: patent publication US20230293524A1, “OTIC FORMULATIONS FOR DRUG-INDUCED OTOTOXICITY” (Spiral Therapeutics Inc, priority 2019, published 2023)
Where two headings read alike, the source gives them in different places.

Experiments:
[1] = system: outer hair cells (OHCs) and inner hair cells (IHCs); experiment: Cochlear explant model: hair cell protection against cisplatin; type: cell-based, Sprague-Dawley rats; conditions: for EC100: Rattus norvegicus, read-out: Ex-vivo Efficacy Conc. for complete protection of hair cells (uM); for protection of hair cells against cisplatin: 1.5 hour pretreatment followed by co-treatment at different concentrations with 10 μM cisplatin
From the text: (§1) For hair cell and spiral ganglion assessment, postnatal Sprague-Dawley rats (P2-P4) of both sexes are anesthetized with isoflurane and decapitated. Temporal bones are removed and transferred to a cell culture dish with ice-cold Ca^2+/Mg^2+-containing phosphate-buffered saline (PBS; Invitrogen) or cold HBSS medium enriched with glucose. Under microscopic visualization, the cochlear capsules are carefully removed from the temporal bone using forceps and transferred to a new cell culture dish containing ice-cold PBS. The cochleae are then dissected from the cochlear capsule using fine forceps. The stria vascularis is removed from the cochlear tissue and discarded. Dissected cochlear epithelia are transferred to permeable membrane inserts (Millicell organotypic culture plate inserts, Millipore) which are placed into 1 mL of culture media (Dulbecco's modified Eagle's medium (high glucose, Glutamax, 25 mM HEPES) with 10% fetal bovine serum, 1% N2 supplement and 10 units/ml penicillin) in a 6-well plate. Up to 4 cochleae are placed onto each membrane. Explants are placed in a humidified chamber with 5% CO2 at 37° C. for a minimum of 18 hours prior to treatment. Cultures are then pre-treated with test compounds and returned to the incubator for a period of 10 minutes to 48 hours.
(§2) Following the incubation period, cochlear samples are fixed in 4% paraformaldehyde for a minimum of 30 minutes after treatment then permeabilized in 0.5% Triton in PBS (PBST) for 1 hour, followed by overnight incubation at 4° C. in primary antibodies in 10% goat or donkey serum (Sigma). Samples are then rinsed in PBST 2 times for 10 minutes each then incubated in alexa-488 conjugated secondary antibodies for 2 hours at room temperature or overnight at 4° C. in 10% goat or donkey serum (Sigma). Samples are then rinsed 2 times in PBS then incubated in DAPI (1:3000) in PBS for 5 minutes prior to mounting on slides. To evaluate the otoprotective efficacy of the compounds, cochlear samples are immunostained using combination of antibodies generated against markers specific for hair cells (Myosin V1, Myosin VIIA, Parvalbumin, etc.), SGNs (TUJ1, Neurofilament, etc.), f-actin, cell death, cell stress, etc. as well as a nuclear stain to identify cell nuclei.
(§3) Immunostained samples are mounted on glass slides and imaged with an LSM880 laser scanning confocal microscope (Zeiss) or an Operetta high-content imager (Perkin Elmer). The entire explant is imaged for all antibody and nuclear labeling in a 3-dimensional X-Y-Z plane in which the Z-plane consists of a stack imaged at intervals of 0.5-5 μm. The total length of the organ of Corti in each explant is then determined and is divided into 4 equal length regions. Basal, middle and apical hair cells or SGNS are counted at the regions approximately 25%, 50% or 75% of the total cochlear length from the base, respectively. Hair cell survival is determined by counting the number of inner and outer hair cells at these three different regions (base, middle and apex) in each cochlear explant and determining the number of missing/dead hair cells per cochlear region. Hair cell counts are obtained by placing a 200 μm length scale bar parallel to the rows of hair cells at each region and manually counting the total number of outer hair cells (OHCs) and inner hair cells (IHCs) within the 200 μm. Similarly, to evaluate the health and survival of SGNs, the density of SGN fibers or soma is also determined per region by manual counting for same region selected for counting hair cells. Nuclear staining is analyzed to confirm the presence or absence of cell nuclei and to evaluate nuclear health. Image analysis and quantification is performed using Zeiss Zen Blue software, or Perkin Elmer Columbus software.
(§4) Neonatal (P2-P4) Sprague-Dawley rats were used for the experiments described here. Animals were euthanized following anesthesia using isoflurane. Rat cochleae were then dissected in cold HBSS medium enriched with glucose. […]

[2] = system: spiral ganglion neurons (SGNs); experiment: Cochlear explant model: spiral ganglion neuron protection against cisplatin; type: cell-based, Sprague-Dawley rats; conditions: 1.5 hour pretreatment followed by co-treatment at different concentrations with 10 μM cisplatin
From the text: as §1, §2, §3, §4

[3] = Cisplatin binding, % bound
[4] = Cisplatin reaction kinetics by HPLC; conditions: 50 μM cisplatin + 50 μM of compound (API) in PBS, pH 7.4, 37° C.
Method: Reaction kinetics between Cisplatin and the compound of interest (nucleophile) were monitored by high performance liquid chromatography. Isocratic separation was achieved using a Waters Spherisorb C8 column (4×250 mm, 5 μm, 80 Å). The flow rate was set to 1.00 mL/min. The mobile phase consisted of 5 mM Sodium Octanesulfonate+5 mM Tetrabutyl Ammonium Hydrogen Sulfate+20 mM Potassium Dihydrogen Phosphate adjusted to pH 5.9. Detection was performed at a wavelength of 210 nm.
Reactions were conducted at equimolar concentrations in buffered aqueous media and held at 37° C. Rate constants (k) were determined by monitoring the disappearance of Cisplatin as a function of time.

[5] = Pharmacokinetic study after intratympanic administration; type: in vivo, rats; conditions: cochlear epithelium, 24 h after dosing
Method: Female rats (Charles River) weighing 200-300 g of approximately 12-16 weeks of age served as subjects (N=4 per group). Prior to any procedures, animals were anesthetized using a combination of xylazine (10 mg/kg), ketamine (50 mg/kg), and acepromazine (1 mg/kg) for up to an hour via the intraperitoneal route. If needed, an intraoperative booster was administered intraperitoneal representing a one-tenth of the original dose.
Intratympanic injection—Each animal was positioned so that the head was tilted at an angle to favor injection towards the round window niche. […] Formulations were delivered using a perfusion pump at the rate of 2 μL/sec. Contact with the round window membrane was maintained for 30 minutes by placing the animal in a recumbent position. During the procedure and until recovery, animals were placed on a temperature controlled (40° C.) heating pad until consciousness was regained at which time they were returned to the vivarium.
Perilymph sampling procedure—The skin behind the ear of anesthetized rats was shaved and disinfected with povidone-iodine. An incision was then made behind the ear, and muscles were carefully retracted from over the bulla. A hole was drilled through the bulla using a dental burr so that the middle ear was exposed and accessed. The cochlea and the round window membrane were visualized under a stereo surgical microscope. The basal turn of bulla was cleaned by using small cotton ball. A unique microhole was hand drilled through the bony shell of the cochlea (cochlear capsule) adjacent to the round window. Perilymph (about 2 μL) was then collected using a microcapillary inserted into the cochlear scala tympani. Perilymph samples were added to a vial containing 18 μL of acetonitrile/water, stored at −80° C. until analysis.
Cochlear epithelium sampling procedure—Under a dissection scope, the bulla was opened, and the cochlea was exposed by removing all surrounding muscles, blood vessels and bone tissues. Holding the bulla, the cochlear wall bony structure was removed working from the base to the apex of the cochlea, exposing the organ of Corti. The exposed cochlear epithelium was gently dabbed with cotton swab to remove excess of liquid from tissue, carefully transferred to labelled tube. Each 2-mL plastic tube that contained acid washed 2.8 mm stainless steel beads was pre-weighed. The tubes were reweighed after adding cochlea epithelium and weights were recorded. All cochlea epithelium samples were placed in dry ice immediately after collection and stored at −80° C. prior to analysis.
Plasma sampling procedure—Blood samples were collected by cardiac puncture into labeled micro-tubes, containing lithium heparin as anticoagulant. Plasma were immediately harvested from the blood by centrifugation and collection for supernatants. All plasma samples were stored at −80° C. prior to analysis.
Samples were extracted by protein precipitation, then vortexed and centrifuged. The supernatant was collected and diluted with two folds of water. A high-performance liquid chromatography system (Agilent 1200 series) with Waters Cortecs C18 Plus column (50*4.6 mm, 2.7 μm) were used. The flow rate was set at 0.700 mL/min. A gradient method with an analytical run time of 5 minutes was used. Mobile phase A consisted of 0.01% ammonium formate, 0.03% formic acid in water. Mobile phase B consisted of 0.01% ammonium formate, 0.03% formic acid in acetonitrile: methanol (70:30, v/v). The gradient began with 30% B, stepped to 70% B at 2.75 minutes and held for 1 minute and then stepped back to 30% B to re-equilibrate the column.
Ionizations and detection of analyte and internal standard were performed on a triple quadruple mass spectrometer, API 5500 Q-Trap equipped with Turbo IonSpray@, from SCIEX (Toronto, Canada). Electro spray ionization (ESI) mass spectra was operated in the positive ion mode. Carbutamide was used as the internal standard (IS). […]

[6] = Rat cisplatin IP PK study, total platinum by ICP-MS; type: in vivo; conditions: for Cmax: read-out: Cmax concentrations in perilymph and cochlear tissues
Method: Total platinum level in samples were analyzed by a qualified inductively coupled plasma mass spectrometric detection (ICP-MS) developed in QPS (Netherlands Lab). Ruthenium were used as internal standard. A flow injection analysis (FIA) method was used to using HPLC pump to introduce samples and internal standard into the systems but without HPLC column. The ICP-quadrupole-MS of Perkin Elmer Sciex Elan 6100 ICP-MS System equipped with a peristaltic pump, nebulizer, spray chamber, and quartz torch were used in platinum analyses.
Sample transport from the autosampler to the nebulizer was performed using a peristaltic pump. The instrument was cooled by using argon gas of 99.999% purity. Data were acquired and processed using the Analyst 1.6. The instrument settings of the ICP-MS had the following operating parameters: ICP radio frequency (RF) power, 1500 W; RF matching, 1.80 V; sampling depth, 8.0 mm; carrier gas, 0.90 L/min; makeup gas, 0.21 L/min; nebulizer pump, 0.10 rps; He gas, 4.5 mL/min; extract 1, 0.0 V; extract 2, −120.0 V; cell entrance, −30 V; cell exit, −30 V; QP bias, −16.0 V; Octp bias, −20.0 V.
The mass to charge ratio is determined by the detector. […] Electronic signals were compared to the standardized curve generated from ultra-high purity platinum samples and solvents. Accounting for dilutions, comparison of the sample signal to the standardized curve will allow for the determination of the original total platinum concentration.
Intraperitoneal injection—The lower right quadrant of the abdomen was shaved and disinfected with alcohol and then povidone iodine. Animals were placed in a supine position and the hind legs were lifted at a 40-degree angle in order to move the abdominal organs towards the diaphragm. A 1″ 23G needle or larger was inserted into the abdominal cavity, directed towards the animal's head, at a 15-20-degree angle and inserted approximately 5 mm. […] After removal of the syringe from the peritoneal cavity, triple antibiotic was placed on the injection site to help prevent infection. During the procedure and until recovery, animals were placed on a temperature controlled (40° C.) heating pad until consciousness was regained at which time they were returned to the vivarium.
Protocol: 3 animals per group at time points. Group A: 30 min, 1 hr, 2 hr, 6 hr, 1 day, 3 day, 7 day, 28 day. Group B: 30 min, 1 hr, 2 hr, 6 hr, 1 day, 3 day. Bioanalysis: Plasma, Perilymph, Cochlear epithelium, CSF. Bioanalytical Method: Total Platinum by ICP-MS.

[7] = intraperitoneal (IP) administration

SMILES | EC100 [1] | protection of hair cells against cisplatin [1] | protection of spiral ganglion neurons against cisplatin [2] | Cisplatin Binding % bound (in 30 min) at 1:10 ratio [3] | also measured
CSC[C@H]1O[C@@H](n2cnc3c(N)ncnc32)[C@H](O)[C@@H]1O [5-Deoxy-5-methylthioadenosine] |  |  |  |  | Ex-vivo Efficacy Conc. for complete protection of hair cells (uM) ([1]; ex vivo cochlear explants, cisplatin): No protection
CC(=O)c1c[nH]c(=S)n(-c2ccc(C)cc2)c1=O [5-acetyl-3-(p-tolyl)-2-thiouracil] | 500 µM |  |  |  | potency on HC protection ([1]; ex-vivo cochlear explants, comparison of thiouracils): lower potency
Sc1ncnc2nc[nH]c12 [6-mercaptopurine] | 50 to 100 µM | complete protection | near complete protection | 60% | 
COc1cc(=O)[nH]c(=S)[nH]1 [6-methoxy-2-thiouracil] | 50 to 100 µM |  |  |  | 
Nc1nc2c(ncn2[C@H]2C[C@H](O)[C@@H](CO)O2)c(=S)[nH]1 [6-thio-2′-deoxy guanosine] | 100 µM | complete protection | near complete protection | 50% | 
Nc1nc2nc[nH]c2c(=S)[nH]1 [6-thioguanine] | 50 to 100 µM | complete protection | near complete protection | 80% | 
Nc1nc2c(ncn2[C@@H]2O[C@H](CO)[C@@H](O)[C@H]2O)c(=S)[nH]1 [6-thioguanosine] | 50 to 100 µM | complete protection | near complete protection |  | 
O=c1cc[nH]c(=S)[nH]1 [Compound 2-thiouracil, 2-thiouracil] | 50 to 100 µM |  |  |  | k [4]: 0.15 M⁻¹ s⁻¹
CSCC[C@@H](N)C(=O)O [D-methionine, reference compound] | 10000 µM |  |  | 40% | k [4]: 0.07 M⁻¹ s⁻¹; In vivo PK in Cochlear Epithelium (24 h after dosing) [5]: ~200 ng/gm CE
O=S(=O)(O)CCS [MESNA, reference compound] |  |  |  |  | k [4]: 0.05 M⁻¹ s⁻¹
N.N.[Cl][Pt][Cl] [cisplatin] |  |  |  |  | Cmax concentrations in perilymph and cochlear tissues ([6]; dosed at 10 mg/kg IP): 700 to 750 ng/mL; Cmax ([6]; dosed at 10 mg/kg IP): 2300 to 2500 nM; Cmax concentrations in perilymph and cochlear tissues ([6]; dosed at 12 mg/kg IP): 700 to 900 ng/mL; Cmax ([6]; dosed at 12 mg/kg IP): 2300 to 3000 nM; time of peak cisplatin levels in cochlear tissues [6, 7]: 6 h; time of peak cisplatin levels in perilymph [6, 7]: ≤ 30 min
